Reference: PubChem BioAssay AID248 (DTP/NCI, 2004)
“And” between values parts separate entries of the source, which are not always exact repeats. Equal entries are not always repeated. Toxic doses and inconclusive results are not listed. No stated cut-off is given here; in the data, active means T/C of 150% or more; inactive means T/C below 125%.

System: L1210 leukemia ip in BDF1 mice, survival T/C
Experiment: NCI In Vivo Anticancer Drug Screen. Data for tumor model L1210 Leukemia (intraperitoneal) in B6D2F1 (BDF1) mice
Settings: endpoint: mean survival time, higher = longer survival
How it was run: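 Each compound was tested against a transplantable tumor grown in mice. The endpoint was survival, with treated animals benchmarked against vehicle controls as a simple ratio.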

[1] = dose: 100.0 mg/kg/injection, schedule: Q04DX003 (ip), vehicle: saline
[2] = dose: 200.0 mg/kg/injection, schedule: Q04DX003 (ip), vehicle: saline
[3] = dose: 400.0 mg/kg/injection, schedule: Q04DX003 (ip), vehicle: saline
[4] = dose: 50.0 mg/kg/injection, schedule: Q04DX002 (ip), vehicle: saline with Tween-80
[5] = dose: 100.0 mg/kg/injection, schedule: Q04DX002 (ip), vehicle: saline with Tween-80
[6] = dose: 200.0 mg/kg/injection, schedule: Q04DX002 (ip), vehicle: saline with Tween-80
[7] = dose: 100.0 mg/kg/injection, schedule: Q01DX009 (ip), vehicle: Klucel (hydroxypropylcellulose) (HPC)
[8] = dose: 200.0 mg/kg/injection, schedule: Q01DX009 (ip), vehicle: Klucel (hydroxypropylcellulose) (HPC)
[9] = dose: 400.0 mg/kg/injection, schedule: Q01DX009 (ip), vehicle: Klucel (hydroxypropylcellulose) (HPC)
[10] = dose: 50.0 mg/kg/injection, schedule: Q01DX001 (ip), vehicle: saline
[11] = dose: 100.0 mg/kg/injection, schedule: Q01DX001 (ip), vehicle: saline
[12] = dose: 200.0 mg/kg/injection, schedule: Q01DX001 (ip), vehicle: saline
[13] = dose: 400.0 mg/kg/injection, schedule: Q01DX001 (ip), vehicle: saline
[14] = dose: 100.0 mg/kg/injection, schedule: Q04DX003 (ip), vehicle: saline with Tween-80
[15] = dose: 100.0 mg/kg/injection, schedule: Q04DX003 (ip), vehicle: Klucel (hydroxypropylcellulose) (HPC)
[16] = dose: 200.0 mg/kg/injection, schedule: Q04DX003 (ip), vehicle: Klucel (hydroxypropylcellulose) (HPC)
[17] = dose: 400.0 mg/kg/injection, schedule: Q04DX003 (ip), vehicle: Klucel (hydroxypropylcellulose) (HPC)

Measured: T/C

NC(=O)c1cc(O)c(Br)c(O)c1
inactive: dose: 100.0 mg/kg/injection, schedule: Q01DX009 (ip), vehicle: other 86 % of control | [1] 98 % of control | dose: 200.0 mg/kg/injection, schedule: Q01DX009 (ip), vehicle: other 100 % of control | [2] 109 % of control | dose: 400.0 mg/kg/injection, schedule: Q01DX009 (ip), vehicle: other 93 % of control | [3] 98 % of control

CNC/C(Cl)=N/S(=O)(=O)c1ccc(C)cc1
inactive: dose: 12.5 mg/kg/injection, schedule: Q04DX002 (ip), vehicle: other 106 % of control | dose: 25.0 mg/kg/injection, schedule: Q04DX002 (ip), vehicle: other 98 % of control | dose: 50.0 mg/kg/injection, schedule: Q04DX002 (ip), vehicle: other 95 % of control | [4] 96 % of control | [5] 99 % of control | [6] 96 % of control | dose: 400.0 mg/kg/injection, schedule: Q04DX002 (ip), vehicle: saline with Tween-80 108 % of control

CCc1ccc(NC(=O)Nc2ccc(Cl)c(Cl)c2)cc1
inactive: [7] 90 % of control | [8] 103 % of control | [9] 103 % of control

O=C1NC(=O)C(c2cccc(O)c2)N1 (stereo not given)
inactive: [10] 100 % of control | [11] 100 % of control | [12] 100 % of control | [13] 100 % of control

Cc1c(Cl)cccc1N=C=S
inactive: dose: 75.0 mg/kg/injection, schedule: Q01DX001 (ip), vehicle: saline 95 % of control | dose: 150.0 mg/kg/injection, schedule: Q01DX001 (ip), vehicle: saline 97 % of control | dose: 300.0 mg/kg/injection, schedule: Q01DX001 (ip), vehicle: saline 100 % of control

Cc1ccc(S(=O)(=O)N2CN3CN(C2)CN(S(=O)(=O)c2ccc(C)cc2)C3)cc1
inactive: [1] 95 % of control | [2] 86 % of control | [3] 95 % of control

CC([NH-])C(C)[NH-].[Cl][Pd][Cl] (stereo not given)
inactive: dose: 12.5 mg/kg/injection, schedule: Q04DX002 (ip), vehicle: Klucel (hydroxypropylcellulose) (HPC) 97 % of control | dose: 25.0 mg/kg/injection, schedule: Q04DX002 (ip), vehicle: Klucel (hydroxypropylcellulose) (HPC) 97 % of control | dose: 50.0 mg/kg/injection, schedule: Q04DX002 (ip), vehicle: Klucel (hydroxypropylcellulose) (HPC) 93 % of control | [4] 93 % of control | [5] 90 % of control | [6] 97 % of control

COC(=O)CCC1([N+](=O)[O-])CCCCC1
inactive: dose: 16.5 mg/kg/injection, schedule: Q01DX009 (ip), vehicle: saline with Tween-80 96 % of control | dose: 25.0 mg/kg/injection, schedule: Q01DX009 (ip), vehicle: saline with Tween-80 94 % of control | dose: 25.0 mg/kg/injection, schedule: Q04DX003 (ip), vehicle: saline with Tween-80 100 % of control | dose: 37.5 mg/kg/injection, schedule: Q01DX009 (ip), vehicle: saline with Tween-80 99 % of control | dose: 50.0 mg/kg/injection, schedule: Q01DX009 (ip), vehicle: saline with Tween-80 100 % of control | dose: 50.0 mg/kg/injection, schedule: Q04DX003 (ip), vehicle: saline with Tween-80 102 % of control | dose: 100.0 mg/kg/injection, schedule: Q01DX009 (ip), vehicle: saline with Tween-80 94 % of control | [14] 105 % of control

CN/C=C1\CCOC1=O
inactive: dose: 100.0 mg/kg/injection, schedule: Q04DX002 (ip), vehicle: saline 124 % of control | dose: 200.0 mg/kg/injection, schedule: Q04DX002 (ip), vehicle: saline 101 % of control | dose: 400.0 mg/kg/injection, schedule: Q04DX002 (ip), vehicle: saline 90 % of control

O=C(/C=C/C(=O)N1CCOCC1)N1CCOCC1
inactive: [14] 100 % of control | dose: 200.0 mg/kg/injection, schedule: Q04DX003 (ip), vehicle: saline with Tween-80 104 % of control | dose: 400.0 mg/kg/injection, schedule: Q04DX003 (ip), vehicle: saline with Tween-80 116 % of control

CC(C)=CCCNC(=O)NS(=O)(=O)c1ccc(C)cc1
inactive: [15] 99 % of control | [16] 101 % of control | [17] 97 % of control

O=C(O)c1ccc(N2C(=O)C=CC2=O)cc1 (tested in a mixture with another compound)
inactive: dose: 12.5 mg/kg/injection, schedule: Q01DX009 (ip), vehicle: acetone 90 % of control

CCOC(=O)c1ccc(NC(=O)Oc2ccc(C(=O)OC)cc2)cc1
inactive: [7] 102 % of control | [8] 95 % of control | [9] 100 % of control

OCCCNc1nc2ccccc2c2ccccc12
inactive: dose: 100.0 mg/kg/injection, schedule: Q01DX009 (ip), vehicle: saline 102 % of control | [15] 94 % of control | dose: 200.0 mg/kg/injection, schedule: Q01DX009 (ip), vehicle: saline 100 % of control | [16] 102 % of control | [17] 100 % of control

O=C(O)c1c2ccccc2nc2ccccc12
inactive: [10] 102 % of control | [11] 111 % of control

N#CC=P(c1ccccc1)(c1ccccc1)c1ccccc1
inactive: dose: 50.0 mg/kg/injection, schedule: Q01DX009 (ip), vehicle: saline 87 % of control

COc1ccc2c(c1O)C13CCN(C)C(C2)C12C=CC(=O)C3c1c(O)ccc(O)c12 (stereo not given)
inactive: dose: 100.0 mg/kg/injection, schedule: Q01DX001 (ip), vehicle: carboxymethylcellulose (CMC) 92 % of control | dose: 200.0 mg/kg/injection, schedule: Q01DX001 (ip), vehicle: carboxymethylcellulose (CMC) 97 % of control | dose: 400.0 mg/kg/injection, schedule: Q01DX001 (ip), vehicle: carboxymethylcellulose (CMC) 95 % of control

NC(N)=N/N=C/C(O)CO (stereo not given)
inactive: dose: 15.0 mg/kg/injection, schedule: Q01DX Z (ip), vehicle: methylcellulose (MC) 104 % of control | dose: 30.0 mg/kg/injection, schedule: Q01DX Z (ip), vehicle: methylcellulose (MC) 113 % of control | dose: 60.0 mg/kg/injection, schedule: Q01DX Z (oral), vehicle: methylcellulose (MC) 117 % of control | dose: 240.0 mg/kg/injection, schedule: Q01DX Z (oral), vehicle: methylcellulose (MC) 93 % of control

Oc1c(Cl)cc(Cl)cc1/C=N/Nc1nnc(N/N=C/c2cc(Cl)cc(Cl)c2O)c2ccccc12
inactive: dose: 50.0 mg/kg/injection, schedule: Q01DX001 (ip), vehicle: other 111 % of control | dose: 100.0 mg/kg/injection, schedule: Q01DX001 (ip), vehicle: other 101 % of control | dose: 200.0 mg/kg/injection, schedule: Q01DX001 (ip), vehicle: other 102 % of control | dose: 400.0 mg/kg/injection, schedule: Q01DX001 (ip), vehicle: other 102 % of control

CCOC(=O)CNNC(=O)C(O)C(O)C(O)C(O)CO (stereo not given)
inactive: [11] 87 % of control | [12] 100 % of control | [13] 100 % of control

CCOC(=O)c1oc2c(C(C)=O)c(O)ccc2c1C
inactive: dose: 100.0 mg/kg/injection, schedule: Q04DX002 (ip), vehicle: Klucel (hydroxypropylcellulose) (HPC) 101 % of control and 103 % of control and 92 % of control | dose: 200.0 mg/kg/injection, schedule: Q04DX002 (ip), vehicle: Klucel (hydroxypropylcellulose) (HPC) 101 % of control and 103 % of control and 92 % of control | dose: 400.0 mg/kg/injection, schedule: Q04DX002 (ip), vehicle: Klucel (hydroxypropylcellulose) (HPC) 108 % of control | dose: 800.0 mg/kg/injection, schedule: Q04DX002 (ip), vehicle: Klucel (hydroxypropylcellulose) (HPC) 93 % of control and 95 % of control

CN(C)OC(=O)Nc1cccc2ccccc12
inactive: dose: 100.0 mg/kg/injection, schedule: Q04DX002 (ip), vehicle: DMSO 96 % of control | dose: 200.0 mg/kg/injection, schedule: Q04DX002 (ip), vehicle: DMSO 108 % of control | dose: 400.0 mg/kg/injection, schedule: Q04DX002 (ip), vehicle: DMSO 101 % of control

N#CC(C(=O)O)C1(C(C#N)C(=O)O)CCN(Cc2ccccc2)CC1 (stereo not given)
inactive: dose: 75.0 mg/kg/injection, schedule: Q01DX001 (ip), vehicle: carboxymethylcellulose (CMC) 96 % of control | dose: 150.0 mg/kg/injection, schedule: Q01DX001 (ip), vehicle: carboxymethylcellulose (CMC) 100 % of control | dose: 300.0 mg/kg/injection, schedule: Q01DX001 (ip), vehicle: carboxymethylcellulose (CMC) 102 % of control
